{"source": "patent US20070161542A1", "about": "“Ptb1b photoprobes” (priority 2003, published 2007)", "origin": "cited, not measured here", "system": "PTP1B and TCPTP1B", "conditions": "reference (23); cited from earlier work", "note": "Non-standard residues stand in square brackets, D forms with d. Residues, ends and D or L forms follow the SMILES beside them. *: point of attachment. F2Pmp = N[C@@H](Cc1ccc(C(F)(F)P(=O)(O)O)cc1)C(=O)O; Bz = O=C(c1ccccc1)*"}
{"smiles": "NC(=O)[C@H](Cc1ccc(C(F)(F)P(=O)(O)O)cc1)NC(=O)[C@H](Cc1ccc(C(F)(F)P(=O)(O)O)cc1)NC(=O)[C@H](CCC(=O)O)NC(=O)c1ccccc1", "note": "[BzN-EJJ-AMIDE, N-benzoyl-L-glutamyl-[4-phosphono(difluoromethyl)]-L-phenylalanyl-[4-phosphono(difluoromethyl)]-L-phenylanalininamide] (Bz-Glu-[F2Pmp]-[F2Pmp]-NH2)", "values": [{"measurement": "inhibitor character", "result": "selective, potent inhibitor"}]}
